In patent publication US20260076973A1 (priority 2023, published 2026) one finds IC50 data, which are given here for 40 molecules.

The test system of the assay is SARS-CoV-2 (WA1). Description: microbe, parasite or virus in culture. It is filed as cell-based.
Where [1] appears, read: Severe acute respiratory syndrome coronavirus 2, Vero C1008, VIRADEM compounds, SARS-CoV-2(WA1) CPE assay, Round 2, concentration range 1000-0.05 nM, Vero E6, read-out: IC50.
Where [2] appears, read: VIRADEM compounds, SARS-CoV-2(WA1) CPE assay, Round 2, concentration range 1000-0.05 nM, Vero E6, read-out: IC50.

Counter-ions that a name gives are not always drawn. Like-named read-outs stand apart in the source and are kept apart here.

With `Cc1ccc(Nc2nc(N3CCOCC3)nc(N3CCOCC3)n2)cc1` [VIRADEM-10882, (4,6-Dimorpholin-4-yl-[1,3,5]triazin-2-yl)-p-tolyl-amine hydrochloride], under setting [1], the half-inhibitory concentration (IC50) was above 1 µM.

In the case of `Cc1ccc(Nc2nc(Nc3ccc(C(C)C)cc3)nc(N3CCOCC3)n2)cc1` [VIRADEM-12253, N-(4-Isoproylphenyl)-6-morpholin-4-yl-N^1-p-tolyl-[1,3,5]triazine-2,4-diamine hydrochloride], under setting [2], the IC50 amounted to 0.51 µM.

On to `CC(=O)c1cccc(Nc2nc(Nc3ccc(F)cc3)nc(N3CCOCC3)n2)c1` [VIRADEM-11883, 1-{3-[4-(4-Fluorophenylamino)-6-morpholin-4-yl-[1,3,5]triazin-2-ylamino]-phenyl}-ethanone hydrochloride], for which the IC50 under setting [1] is above 1 µM.

Regarding `Cc1ccc(Nc2nc(N3CCOCC3)nc(N(C)c3ccccc3)n2)cc1C` [VIRADEM-15168, N-(3,4-Dimethylphenyl)-N^1-methyl-6-morpholin-4-yl-N^1-phenyl-[1,3,5]triazine-2,4-diamine], under setting [2], the IC50 amounted to 0.18 µM.

As for `Cc1ccc(N2C(N3CCOCC3)=NC(N)=NC2Nc2cccc(F)c2)cc1` (stereo not shown) [VIRADEM-11785, N-(3-Fluorophenyl)-6-morpholin-4-yl-N^1-p-tolyl-[1,3,5]triazine-2,4-diamine hydrochloride], the IC50 under setting [1] turned out to be 0.17 µM.

With `Cc1ccc(NC2N=C(N)N=C(N3CCCC3)N2c2ccc(F)cc2)cc1C` (stereo not shown) [VIRADEM-11809, N-(3,4-Dimethylphenyl)-N^1-(4-fluorophenyl)-6-pyrrolidin-1-yl-[1,3,5]triazine-2,4-diamine hydrochloride], the concentration for half-maximal inhibition (IC50) under setting [1] is above 1 µM.

With `COc1ccccc1Nc1nc(N2CCCC2)nc(N2CCCC2)n1` [VIRADEM-11597, (4,6-Dipyrrolidin-1-yl-[1,3,5]triazin-2-yl)-(2-methoxyphenyl)-amine hydrochloride], under setting [1], the IC50 was above 1 µM.

As for `Cc1ccccc1Nc1nc(N2CCOCC2)nc(N2CCOCC2)n1` [VIRADEM-12434, (4,6-Dimorpholin-4-yl-[1,3,5]triazin-2-yl)-o-tolyl-amine], the IC50 under setting [1] is above 1 µM.

On to `Cc1ccc(Nc2nc(C3CCNC3)nc(C3CCNC3)n2)cc1` (stereo not shown) [VIRADEM-11139, (4,6-Dipyrrolidin-4-yl-[1,3,5]triazin-2-yl)-p-tolyl-amine hydrochloride], for which the IC50 under setting [1] was above 1 µM.

As to `Cc1ccc(Nc2nc(N3CCCCCC3)nc(N3CCOCC3)n2)cc1` [VIRADEM-15229, (4-Azepan-1-yl-6-morpholin-4-yl-[1,3,5]triazin-2-yl)-p-tolyl-amine], the IC50 under setting [1] stood at 0.85 µM.

Turning to `Clc1cccc(Nc2nc(N3CCOCC3)nc(N3CCOCC3)n2)c1` [VIRADEM-10902, (3-Chlorophenyl)-(4,6-dimorpholin-4-yl-[1,3,5]triazin-2-yl)-amine hydrochloride], the IC50 under setting [1] is above 1 µM.

Turning to `c1ccc(CCNc2nc(N3CCOCC3)nc(N3CCOCC3)n2)cc1` [VIRADEM-15230, (4,6-Dimorpholin-4-yl-[1,3,5]triazin-2-yl)-phenetylamine], the IC50 under setting [2] was determined as 0.46 µM.

For `COc1ccc(CCNc2nc(N3CCOCC3)nc(N3CCOCC3)n2)cc1OC` [VIRADEM-15243, [2-(3,4-Dimethoxyphenyl)-ethyl]-(4,6-dimorpholin-4-yl-[1,3,5]triazin-2-yl)-amine], under setting [1], the half-maximal inhibitory concentration (IC50) was above 1 µM.

As to `C1CCCN(c2nc(N3CCOCC3)nc(N3CCOCC3)n2)CC1` [VIRADEM-16523, 1-(4,6-Dimorpholin-4-yl-[1,3,5]triazin-2-yl)-azepane], under setting [1], the IC50 is above 1 µM.

Turning to `Cc1ccc(Nc2nc(Nc3cccc4ccccc34)nc(N3CCOCC3)n2)cc1` [VIRADEM-15279, 6-Morpholin-4-yl-N-naphtalen-1-yl-N^1-p-tolyl-[1,3,5]triazine-2,4-diamine], under setting [2], the IC50 came to 0.08 µM.

In the case of `Clc1ccc(Oc2nc(N3CCOCC3)nc(N3CCOCC3)n2)cc1` [VIRADEM-15106, 2-(4-Chlorophenoxy)-4,6-dimorpholin-4-yl-[1,3,5]triazine], the IC50 under setting [1] is above 1 µM.

`Clc1ccc(Nc2nc(N3CCOCC3)nc(N3CCOCC3)n2)cc1` [VIRADEM-10894, (4-Chlorophenyl)-(4,6-dimorpholin-4-yl-[1,3,5]triazin-2-yl)-amine hydrochloride]: the IC50 under setting [1] came out at 0.84 µM.

For the molecule `Clc1ccccc1Nc1nc(Nc2ccccc2Cl)nc(N2CCOCC2)n1` [VIRADEM-14303, N,N^1-bis-(2-chlorophenyl)-6-morpholin-4-yl-[1,3,5]triazine-2,4-diamine], the IC50 (Severe acute respiratory syndrome coronavirus 2, Vero C1008) was above 1 µM.

As for `Cc1ccc(Nc2nc(N3CCOCC3)nc(N3CCCc4ccccc43)n2)cc1C` [VIRADEM-15278, [4-(3,4-Dihydro-2-H-quinolin-1-yl)-6-morpholin-4-yl-[1,3,5]triazin-2-yl]-(3,4-dimethylphenyl)-amine], under setting [2], the IC50 was 0.12 µM.

As to `CCOc1ccc(Nc2nc(N3CCOCC3)nc(N3CCOCC3)n2)cc1` [VIRADEM-9794, (4,6-Dimorpholin-4-yl-[1,3,5]triazin-2-yl)-(4-ethoxyphenyl)-amine hydrochloride], the IC50 under setting [1] was above 1 µM.

On to `CCCCc1ccc(Nc2nc(Nc3cccc(C(C)=O)c3)nc(N3CCOCC3)n2)cc1` [VIRADEM-12037, 1-{3-[4-(4-Butylphenylamino)-6-morpholin-4-yl-[1,3,5]triazin-2-ylamino]-phenyl}-ethanone], for which, under setting [1], the IC50 was above 1 µM.

In the case of `COC(=O)c1ccc(Nc2nc(Nc3cccc(OC)c3)nc(N3CCOCC3)n2)cc1` [VIRADEM-12329, 4-[4-(3-Methoxyphenylamino)-6-morpholin-4-yl-[1,3,5]triazin-2-ylamino]-benzoic acid methyl ester], the IC50 under setting [1] amounted to 0.02 µM.

For `COc1cccc(NC2N=C(N)N=C(N3CCOCC3)N2c2ccccc2)c1` (stereo not shown) [VIRADEM-12252, N-(3-Methoxyphenyl)-6-morpholin-4-yl-N^1-phenyl-[1,3,5]triazine-2,4-diamine hydrochloride], the IC50 under setting [1] came out at 0.11 µM.

For `Cc1cc(C)cc(Nc2nc(Nc3ccc(Cl)c(Cl)c3)nc(N3CCOCC3)n2)c1` [VIRADEM-11759, N-(3,4-Dichlorophenyl)-N^1-(3,5-dimethyphenyl)-6-morpholin-4-yl-[1,3,5]triazine-2,4-diamine], the IC50 under setting [2] came to 0.35 µM.

As for `COc1ccc(Nc2nc(Nc3ccc(C(N)=O)cc3)nc(N3CCOCC3)n2)cc1` [VIRADEM-15356, 4-[4-(4-Methoxyphenylamino)-6-morpholin-4-yl-[1,3,5]triazin-2-ylamino]-benzamide], the IC50 under setting [1] amounted to 0.12 µM.

As for `c1ccc(Oc2ccc(Nc3nc(N4CCOCC4)nc(N4CCOCC4)n3)cc2)cc1` [VIRADEM-10892, (4,6-Dimorpholin-4-yl-[1,3,5]triazin-2-yl)-(4-phenoxyphenyl)-amine hydrochloride], the IC50 under setting [1] was above 1 µM.

For “N-(3-Chlorophenyl)-N^1-phenyl)-6-pyrrolidin-1-yl-[1,3,5]triazine-2,4-diamine hydrochloride [VIRADEM-12312]”, under setting [2], the IC50 is above 1 µM.

In the case of `CC(C)c1ccc(Nc2nc(N3CCOCC3)nc(N3CCOCC3)n2)cc1` [VIRADEM-12435, (4,6-Dimorpholin-4-yl-[1,3,5]triazin-2-yl)-(4-isopropylphenyl)-amine], the half-inhibitory concentration (IC50) under setting [1] was above 1 µM.

`CCc1ccc(Nc2nc(Nc3cc(Cl)cc(Cl)c3)nc(N3CCOCC3)n2)cc1` [VIRADEM-12327, N-(3,5-Dichlorophenyl)-N^1-(4-ethylphenyl)-6-morpholin-4-yl-[1,3,5]triazine-2,4-diamine]: under setting [1], the IC50 came to 0.73 µM.

Take `Clc1cccc(Nc2nc(N3CCCCC3)nc(N3CCCCC3)n2)c1` [VIRADEM-11499, (3-Chlorophenyl)-(4,6-dipiperidine-1-yl-[1,3,5]triazin-2-yl)-amine hydrochloride]: under setting [1], the IC50 was above 1 µM.

In the case of `Cc1cc(C)cc(Nc2nc(N3CCOCC3)nc(N3CCOCC3)n2)c1` [VIRADEM-10887, (3,5-Dimethylphenyl)-(4,6-dimorpholin-4-yl-[1,3,5]triazin-2-yl)-amine], under setting [1], the IC50 was above 1 µM.

Regarding `CC(=O)c1cccc(Nc2nc(Nc3ccc(Cl)cc3)nc(N3CCOCC3)n2)c1` [VIRADEM-11882, 1-{3-[4-(4-chlorophenylamino)-6-morpholin-4-yl-[1,3,5]triazin-2-ylamino]-phenyl}-ethanone], the IC50 under setting [1] is 0.12 µM.

In the case of `Cc1ccc(Nc2nc(N3CCOCC3)nc(N3CCOCC3)n2)cc1Cl` [VIRADEM-10886, (3-Chloro-4-methylphenyl)-(4,6-dimorpholin-4-yl-[1,3,5]triazin-2-yl)-amine hydrochloride], the IC50 under setting [1] is 0.31 µM.

For the molecule `Cc1cccc(Nc2nc(N3CCOCC3)nc(N3CCOCC3)n2)c1` [VIRADEM-10848, (4,6-Dimorpholin-4-yl-[1,3,5]triazin-2-yl)-m-tolyl-amine hydrochloride], the IC50 under setting [1] is above 1 µM.

On to `CC(=O)Nc1ccc(Nc2nc(N3CCCC3)nc(N3CCCC3)n2)cc1` [VIRADEM-11510, N-[4-(4,6-Dipyrrolidin-1-yl-[1,3,5]triazin-2-ylamino)-phenyl]-acetamide hydrochloride], for which the half-inhibitory concentration (IC50) under setting [1] is above 1 µM.

`c1ccc(CNc2nc(N3CCOCC3)nc(N3CCOCC3)n2)cc1` [VIRADEM-15209, Benzyl-(4,6-dimorpholin-4-yl-[1,3,5]triazin-2-yl)-amine]: the IC50 under setting [1] was above 1 µM.

Turning to `Cc1cccc(Nc2nc(Nc3ccc(C(C)C)cc3)nc(N3CCOCC3)n2)c1` [VIRADEM-12251, N-(4-Isoproylphenyl)-6-morpholin-4-yl-N^1-m-tolyl-[1,3,5]triazine-2,4-diamine hydrochloride], under setting [2], the IC50 came to 0.56 µM.

`Cc1ccc(S(=O)(=O)NNc2nc(N3CCOCC3)nc(N3CCOCC3)n2)cc1` [VIRADEM-15295, N-(4,6-Dimorpholin-4-yl-[1,3,5]triazin-2-yl)-N^1-tozylhydrazin]: under setting [2], the IC50 is above 1 µM.

Turning to `CCNc1nc(NCC)nc(Nc2ccc(C)c(C)c2)n1` [VIRADEM-11768, N-(3,4-Dimethylhenyl)-N^1,N^2-diethyl-[1,3,5]triazine-2,4,6-triamine hydrochloride], under setting [2], the IC50 is above 1 µM.

`c1cc2c(cc1Nc1nc(N3CCCC3)nc(N3CCCC3)n1)OCO2` [VIRADEM-11522, Benzo[1,3]dioxol-5-yl-(4,6-dipyrrolidin-1-yl-[1,3,5]triazin-2-yl)-amine hydrochloride]: the IC50 under setting [1] is above 1 µM.

The IC50 is the concentration that inhibits the measured activity by half.
